Key:
LNCaP tumor bearing mice [1] = assay: SPECT/CT scanning, exposure of 177Lu labeled compounds in tumor and tissues; assay type: in vivo
Method: The ^177Lu labeled precursor compound was diluted to 7.4 MBq (200 μCi)/200 […] with normal saline, and each tumor bearing mouse was given about 7.4 MBq (200 μCi) of the drug via tail vein injection. SPECT/CT scanning was performed on the mice at 1, 4, 8, 24, 48 and 72 h after administration, respectively, with the mice under continuous anesthesia with isoflurane, lying prone on an examination bed. The acquisition method was static imaging 12 min SPECT, and medium resolution whole-body imaging CT. During the process, according to the recording table, the animal body weight, injection dose, injection time and residual dose were recorded, and the time of measuring the injection dose and the time of measuring the residual dose were recorded respectively. After scanning, the data were reconstructed, PMOD software was used to analyze and delineate each organ tissue and quantify the drug distribution therein, the images and data were saved, and the data were further subjected to statistical analysis.
Drug exposure in each tissue was calculated (Table 1, where the values involving PSMA-D were the predicted values).

LNCaP tumor bearing mice [2] = assay: Inhibition on tumor; assay type: in vivo; details: 14.8 MBq (400 μCi)
Method: PSMA positive LNCaP cells were proliferated and harvested, and then inoculated subcutaneously in mice at an amount of 1×10^7/mouse. When the tumors grew to 200-400 mm^3, the mice were randomly grouped according to the tumor size (3-4 mice in each group), and were given the compound (400 μCi) of the present invention labeled with […] or the positive control compound PSMA-617 labeled with ^177Lu via tail vein injection, respectively. The tumor sizes and body weights of the mice were measured every 3 days after administration, and the death of the mice was recorded. The control group and the administration group were compared to understand the inhibition on LNCaP tumors by different drugs. On day 6 after administration, SPECT/CT scanning was performed on the administration group to understand the exposure of different drugs at the tumor sites during the treatment.

[3] = labeled with 177Lu, about 7.4 MBq (200 μCi) tail vein, scans 1-72 h

| SMILES | Exposure in Bladder (LNCaP tumor bearing mice [1]; [3]) | Exposure in Bone (LNCaP tumor bearing mice [1]; [3]) | Exposure in Heart (LNCaP tumor bearing mice [1]; [3]) | Exposure in Kidney (LNCaP tumor bearing mice [1]; [3]) | Exposure in Liver (LNCaP tumor bearing mice [1]; [3]) | Exposure in Lung (LNCaP tumor bearing mice [1]; [3]) | Exposure in Muscle (LNCaP tumor bearing mice [1]; [3]) | Exposure in Spleen (LNCaP tumor bearing mice [1]; [3]) | Exposure in Tumor (LNCaP tumor bearing mice [1]; [3]) | other results |
| --- | --- | --- | --- | --- | --- | --- | --- | --- | --- | --- |
| O=C(O)CCCCCCCCCCC(=O)N[C@@H](CCCCNC(=O)CN1CCN(CC(=O)O)CCN(CC(=O)O)CCN(CC(=O)O)CC1)C(=O)NCC1CCC(C(=O)N[C@@H](Cc2ccc3ccccc3c2)C(=O)NCCCC[C@H](NC(=O)N[C@@H](CCC(=O)O)C(=O)O)C(=O)O)CC1 (stereo partly drawn) [PSMA-H] | 1135 h*ID %/g | 22.69 h*ID %/g | 63.71 h*ID %/g | 575 h*ID %/g | 72.88 h*ID %/g | 56.76 h*ID %/g | 35.74 h*ID %/g | 62.06 h*ID %/g | 441.2 h*ID %/g | – |
| O=C([O-])CN1CCN(CC(=O)[O-])CCN(CC(=O)NCC2CCC(C(=O)N[C@@H](Cc3ccc4ccccc4c3)C(=O)NCCCC[C@H](NC(=O)N[C@@H](CCC(=O)O)C(=O)O)C(=O)O)CC2)CCN(CC(=O)[O-])CC1.[177Lu+3] (stereo partly drawn) [^177Lu-PSMA-617] | – | – | – | – | – | – | – | – | – | body weight of the animals during the treatment (LNCaP tumor bearing mice [2]): no significant difference |
| COc1ccc(CCCC(=O)NC(CO)C(=O)N[C@@H](CCCCNC(=O)CN2CCN(CC(=O)O)CCN(CC(=O)O)CCN(CC(=O)O)CC2)C(=O)NCC2CCC(C(=O)N[C@@H](Cc3ccc4ccccc4c3)C(=O)NCCCC[C@H](NC(=O)N[C@@H](CCC(=O)O)C(=O)O)C(=O)O)CC2)cc1 (stereo partly drawn) [PSMA-D] | – | – | – | – | – | – | – | – | – | Exposure in Bladder (LNCaP tumor bearing mice [1]; predicted values (PSMA-D)): 200-800 h*ID %/g; Exposure in Bone (LNCaP tumor bearing mice [1]; predicted values (PSMA-D)): 10-80 h*ID %/g; Exposure in Heart (LNCaP tumor bearing mice [1]; predicted values (PSMA-D)): 20-100 h*ID %/g; Exposure in Kidney (LNCaP tumor bearing mice [1]; predicted values (PSMA-D)): 50-500 h*ID %/g; Exposure in Liver (LNCaP tumor bearing mice [1]; predicted values (PSMA-D)): 50-200 h*ID %/g; Exposure in Lung (LNCaP tumor bearing mice [1]; predicted values (PSMA-D)): 20-200 h*ID %/g; Exposure in Muscle (LNCaP tumor bearing mice [1]; predicted values (PSMA-D)): 20-100 h*ID %/g; Exposure in Spleen (LNCaP tumor bearing mice [1]; predicted values (PSMA-D)): 20-100 h*ID %/g; Exposure in Tumor (LNCaP tumor bearing mice [1]; predicted values (PSMA-D)): 200-1000 h*ID %/g |
| O=C(O)CCCCCCCCCCCCCCC(=O)N[C@@H](CCCCNC(=O)CN1CCN(CC(=O)O)CCN(CC(=O)O)CCN(CC(=O)O)CC1)C(=O)NCC1CCC(C(=O)N[C@@H](Cc2ccc3ccccc3c2)C(=O)NCCCC[C@H](NC(=O)N[C@@H](CCC(=O)O)C(=O)O)C(=O)O)CC1 (stereo partly drawn) [PSMA-F] | 633.7 h*ID %/g | 94.85 h*ID %/g | 581.6 h*ID %/g | 669.2 h*ID %/g | 263.1 h*ID %/g | 348.3 h*ID %/g | 253.3 h*ID %/g | 55.76 h*ID %/g | 1394 h*ID %/g | – |
| COc1ccc(C(=O)NCCN2CCN(C(=O)CCC(=O)N[C@@H](CCCCNC(=O)CN3CCN(CC(=O)O)CCN(CC(=O)O)CCN(CC(=O)O)CC3)C(=O)NCC3CCC(C(=O)N[C@@H](Cc4ccc5ccccc5c4)C(=O)NCCCC[C@H](NC(=O)N[C@@H](CCC(=O)O)C(=O)O)C(=O)O)CC3)CC2)cc1 (stereo partly drawn) [PSMA-K] | 585.9 h*ID %/g | 32.71 h*ID %/g | 54.52 h*ID %/g | 79.78 h*ID %/g | 314.2 h*ID %/g | 278.5 h*ID %/g | 26.77 h*ID %/g | 83.81 h*ID %/g | 281 h*ID %/g | – |
| COc1ccc(C(=O)NCCN2CCN(C(=O)CCC(=O)N[C@@H](CCCCNC(=O)CN3CCN(CC(=O)O)CCN(CC(=O)O)CCN(CC(=O)O)CC3)C(=O)N3CCc4cc(C(=O)N[C@@H](Cc5ccc6ccccc6c5)C(=O)NCCCC[C@H](NC(=O)N[C@@H](CCC(=O)O)C(=O)O)C(=O)O)ccc4C3)CC2)cc1 [PSMA-L] | 499.3 h*ID %/g | 15.5 h*ID %/g | 40.58 h*ID %/g | 148.8 h*ID %/g | 62.47 h*ID %/g | 51.83 h*ID %/g | 37.2 h*ID %/g | 34.43 h*ID %/g | 1350 h*ID %/g | drug exposure in the LNCaP tumor, in words (LNCaP tumor bearing mice [1]; in contrast to PSMA-617): greatly increase the drug exposure in the LNCaP tumor; exposure in the normal tissues, in words (LNCaP tumor bearing mice [1]; in contrast to PSMA-617): kept at a lower level |
| COc1ccc(C(=O)N[C@@H](CCCCNC(=O)CN2CCN(CC(=O)O)CCN(CC(=O)O)CCN(CC(=O)O)CC2)C(=O)NCC2CCC(C(=O)N[C@@H](Cc3ccc4ccccc4c3)C(=O)NCCCC[C@H](NC(=O)N[C@@H](CCC(=O)O)C(=O)O)C(=O)O)CC2)cc1 (stereo partly drawn) [PSMA-I] | 831.9 h*ID %/g | 50.24 h*ID %/g | 23.61 h*ID %/g | 776.8 h*ID %/g | 55.24 h*ID %/g | 31.12 h*ID %/g | 62.66 h*ID %/g | 65.02 h*ID %/g | 95.56 h*ID %/g | – |
| O=C(O)CC[C@H](NC(=O)N[C@@H](CCCCNC(=O)[C@H](Cc1ccc2ccccc2c1)NC(=O)[C@H]1CC[C@H](CNC(=O)CN2CCN(CC(=O)O)CCN(CC(=O)O)CCN(CC(=O)O)CC2)CC1)C(=O)O)C(=O)O [PSMA-617, reference compound] | 553.2 h*ID %/g | 9.939 h*ID %/g | 23.31 h*ID %/g | 77.45 h*ID %/g | 48.92 h*ID %/g | 40.93 h*ID %/g | 36.36 h*ID %/g | 54.27 h*ID %/g | 346.9 h*ID %/g | – |

Continued, in another order:

| Exposure in Bladder (LNCaP tumor bearing mice [1]; [3]) | Exposure in Bone (LNCaP tumor bearing mice [1]; [3]) | Exposure in Heart (LNCaP tumor bearing mice [1]; [3]) | Exposure in Kidney (LNCaP tumor bearing mice [1]; [3]) | Exposure in Liver (LNCaP tumor bearing mice [1]; [3]) | Exposure in Lung (LNCaP tumor bearing mice [1]; [3]) | Exposure in Muscle (LNCaP tumor bearing mice [1]; [3]) | Exposure in Spleen (LNCaP tumor bearing mice [1]; [3]) | Exposure in Tumor (LNCaP tumor bearing mice [1]; [3]) | SMILES | other results |
| --- | --- | --- | --- | --- | --- | --- | --- | --- | --- | --- |
| 935.9 h*ID %/g | 54.86 h*ID %/g | 123.9 h*ID %/g | 1589 h*ID %/g | 193.2 h*ID %/g | 86.51 h*ID %/g | 71.89 h*ID %/g | 83.39 h*ID %/g | 226.4 h*ID %/g | O=C(O)CCCCCCCCCCCCC(=O)N[C@@H](CCCCNC(=O)CN1CCN(CC(=O)O)CCN(CC(=O)O)CCN(CC(=O)O)CC1)C(=O)NCC1CCC(C(=O)N[C@@H](Cc2ccc3ccccc3c2)C(=O)NCCCC[C@H](NC(=O)N[C@@H](CCC(=O)O)C(=O)O)C(=O)O)CC1 (stereo partly drawn) [PSMA-G] | – |
| 310.2 h*ID %/g | 40.07 h*ID %/g | 50.46 h*ID %/g | 206 h*ID %/g | 101.6 h*ID %/g | 35.49 h*ID %/g | 17.65 h*ID %/g | 42.25 h*ID %/g | 235 h*ID %/g | COc1ccc(CCCC(=O)NC(CCCNC(=N)N)C(=O)N[C@@H](CCCCNC(=O)CN2CCN(CC(=O)O)CCN(CC(=O)O)CCN(CC(=O)O)CC2)C(=O)NCC2CCC(C(=O)N[C@@H](Cc3ccc4ccccc4c3)C(=O)NCCCC[C@H](NC(=O)N[C@@H](CCC(=O)O)C(=O)O)C(=O)O)CC2)cc1 (stereo partly drawn) [PSMA-A] | – |
| 157.3 h*ID %/g | 20.62 h*ID %/g | 54.22 h*ID %/g | 330.5 h*ID %/g | 53.28 h*ID %/g | 50.04 h*ID %/g | 32.14 h*ID %/g | 31.81 h*ID %/g | 370 h*ID %/g | COc1ccc(CCCC(=O)NC(Cc2c[nH]cn2)C(=O)N[C@@H](CCCCNC(=O)CN2CCN(CC(=O)O)CCN(CC(=O)O)CCN(CC(=O)O)CC2)C(=O)NCC2CCC(C(=O)N[C@@H](Cc3ccc4ccccc4c3)C(=O)NCCCC[C@H](NC(=O)N[C@@H](CCC(=O)O)C(=O)O)C(=O)O)CC2)cc1 (stereo partly drawn) [PSMA-B] | – |
| 100.8 h*ID %/g | 32.01 h*ID %/g | 38.58 h*ID %/g | 178.7 h*ID %/g | 49.61 h*ID %/g | 31.55 h*ID %/g | 17.82 h*ID %/g | 29.2 h*ID %/g | 131.9 h*ID %/g | COc1ccc(CCCC(=O)NC(CCCCN)C(=O)N[C@@H](CCCCNC(=O)CN2CCN(CC(=O)O)CCN(CC(=O)O)CCN(CC(=O)O)CC2)C(=O)NCC2CCC(C(=O)N[C@@H](Cc3ccc4ccccc4c3)C(=O)NCCCC[C@H](NC(=O)N[C@@H](CCC(=O)O)C(=O)O)C(=O)O)CC2)cc1 (stereo partly drawn) [PSMA-C] | – |
| 710.2 h*ID %/g | 51.75 h*ID %/g | 19.52 h*ID %/g | 239 h*ID %/g | 31.19 h*ID %/g | 14.87 h*ID %/g | 25.53 h*ID %/g | 46.74 h*ID %/g | 473.6 h*ID %/g | COc1ccc(CCCC(=O)NC(CCC(N)=O)C(=O)N[C@@H](CCCCNC(=O)CN2CCN(CC(=O)O)CCN(CC(=O)O)CCN(CC(=O)O)CC2)C(=O)NCC2CCC(C(=O)N[C@@H](Cc3ccc4ccccc4c3)C(=O)NCCCC[C@H](NC(=O)N[C@@H](CCC(=O)O)C(=O)O)C(=O)O)CC2)cc1 (stereo partly drawn) [PSMA-E] | – |
